Assay results published in paper PMC5410595, “In Vitro and In Silico Antidiabetic and Antimicrobial Evaluation of Constituents from Kickxia ramosissima (Nanorrhinum ramosissimum)” (Frontiers in Pharmacology, 2017).
“Also recorded” adds a separate entry of the source.

Assays:
[1] = system: formation of AGEs (BSA-glucose); test: BSA-glucose antiglycation assay; type: biochemical; conditions: for Protein glycation BSA-Glucose % inhibition: isolated constituents, at the highest test concentration of 3 mM; for IC50: read-out: Protein glycation BSA-Glucose IC50
Procedure: The BSA-glucose and BSA-MGO antiglycation assays were performed as reported before ([Amin et al., 2016]). The test protocol is attached as Supplementary Material ([Amin et al., 2016]).
28 Antiglycation assay (BSA-Glucose assay)
29 In the BSA-glucose assay the prevention of AGEs formation is investigated by determining the
30 fluorescence of the complex formed after incubation of a sugar (glucose) with protein (BSA) in
31 the presence or absence of test compounds. The antiglycation assay was performed according to
32 the method developed by Matsuura et al. (2002) with minor modifications. […]
37 DMSO. The mixtures were incubated at 60°C for 48 h. After incubation, the reaction mixture
38 was allowed to cool down at room temperature. Then 100 µL reaction mixture was transferred
39 to a new plastic tube (1.5 mL) and the reaction was stopped by adding 10 μL of 100% (w/v)
40 trichloroacetic acid (TCA) and to precipitate proteins. The TCA-added mixture was kept at 4°C
41 for 10 min, followed by centrifugation (14000 rpm, 4 °C, 4 min). The supernatant containing
42 unreacted D-glucose, test sample and interfering substances was discarded, whereas the
44 8.1 mM Na2HPO4, 2.68 mM KCl, 1.47 mM KH2PO4, […]). The change in fluorescence
46 of AGEs was monitored by spectrofluorometry (Tecan™ Infinite M200, Giessen, The
47 Netherlands). In order to eliminate interference by autofluorescence of the test compounds, a
48 parallel incubation of test substance with BSA at 60°C without D-glucose was performed for all
50 final concentration) were used as reference compounds.
51 The AGEs inhibition was calculated as
55 where F is the fluorescence intensity.
56 calculated using Sigma plot® 13.0.

[2] = molecular target: T1, α-glucosidase from Saccharomyces cerevisiae (Saccharomyces cerevisiae, UniProt P53341); test: α-glucosidase inhibition assay; type: biochemical; set-up: inhibition: dose or concentration left out as unconfirmed; conditions: for inhibition: read-out: α-glucosidase % inhibition; for α-glucosidase % inhibition: at the highest test concentration of 2 mM
T1 construct: purchased Sigma-Aldrich
Procedure: The α-glucosidase assay was carried out according as reported before ([Amin et al., 2016]). The test protocol is attached as Supplementary Material ([Amin et al., 2016]).
81 Inhibition of α-glucosidase.
82 α-Glucosidase inhibitory activity was assayed according to method adopted by Choudhary et al.
83 (2010) with some modifications. Briefly, 50 µL of a solution of α-glucosidase from
84 Saccharomyces cerevisiae (0.2 U/mL in 0.1 M phosphate buffer at pH 6.8, Sigma-Aldrich, St.
85 Louis, MO, USA) was incubated with 20 μL of test compounds or extracts at different
86 concentrations (ranging from 6 mM – 0.372 mM in 25% DMSO for isolated constituents or
87 from 5 mg to 0.039 mg/mL for extracts) at 37 °C for 10 min. Then 50 μl of the substrate,
88 p-nitrophenyl-α-D-glucopyranoside (0.7 mM stock, final concentration 0.29 mM) was added to
89 the reaction mixture and incubated again for 30 min at 37 °C. […]
91 from 834 µg to 6.5 µg/mL for extracts. The reaction was stopped by adding Na2CO3 (100 μl,
92 200 mM stock) solution and the absorbance was measured at 400 nm. Final DMSO
93 concentration remained below 7.5% during the assay.
94 concentration) was used as reference compound.
96 The % inhibition was calculated using the following formula:
98 % Inhibition = 100 – [OD (test sample) / OD (control)] × 100
100 Alpha-glucosidase inhibition was categorized as mild (1-25%), moderate (26-50%), high

Staphylococcus aureus = test: Antimicrobial screening panel: Staphylococcus aureus; type: cell-based
Procedure: (§1) Fractions and isolated compounds were evaluated for antimicrobial activity in an integrated screening panel, also including the human MRC-5 cell line to assess selectivity, as reported before ([Cos et al., 2006]; [Mesia et al., 2008]; [Baldé et al., 2010]; [Amin et al., 2016]).

[3] = system: Trypanosoma cruzi, Tulahuen LacZ, clone C4; test: Antimicrobial screening panel: Trypanosoma cruzi; type: cell-based
Procedure: as §1

Plasmodium falciparum K1 = test: Antimicrobial screening panel: Plasmodium falciparum; type: cell-based
Procedure: as §1

[4] = system: MRC-5, human fetal lung fibroblasts
Procedure: as §1

T1 sequence (P53341 whole entry): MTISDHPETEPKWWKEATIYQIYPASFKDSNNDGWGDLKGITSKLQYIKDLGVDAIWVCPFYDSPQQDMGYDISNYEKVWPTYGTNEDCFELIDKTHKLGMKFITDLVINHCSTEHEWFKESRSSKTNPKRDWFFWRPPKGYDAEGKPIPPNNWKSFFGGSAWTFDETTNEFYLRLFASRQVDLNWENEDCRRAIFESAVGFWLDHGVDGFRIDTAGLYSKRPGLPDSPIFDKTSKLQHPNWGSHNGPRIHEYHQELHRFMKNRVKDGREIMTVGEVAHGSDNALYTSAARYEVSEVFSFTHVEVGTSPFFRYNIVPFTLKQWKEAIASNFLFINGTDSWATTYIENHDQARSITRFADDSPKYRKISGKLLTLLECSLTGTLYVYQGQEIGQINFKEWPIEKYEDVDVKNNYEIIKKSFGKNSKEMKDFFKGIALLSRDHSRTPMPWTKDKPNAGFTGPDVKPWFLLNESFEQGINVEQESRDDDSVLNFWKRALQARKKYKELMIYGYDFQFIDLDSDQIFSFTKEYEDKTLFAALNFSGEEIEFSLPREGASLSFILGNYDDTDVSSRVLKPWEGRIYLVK

Row | SMILES | Protein glycation BSA-Glucose % inhibition [1] | inhibition [2] [%] | IC50 [1] [µM] | further results
1 | COC(=O)c1ccc(O)cc1 [Compound 7, 4-Hydroxy benzoic acid methyl ester] | did not present any inhibition; also recorded: no activity | 47 |  | 
2 | CO[C@H]1C[C@@]2(O)[C@H](O)[C@@H](O)[C@](C)(OC)[C@H]2[C@@H](OC)O1 [Compound 1, Kickxiasine] | 26% |  |  | α-glucosidase % inhibition [2]: no activity; α-glucosidase % inhibition ([2]; listed as compound 1): did not present any activity
3 | COC(=O)C1=COC(OC2OC(CO)C(O)C(O)C2O)C2C1CCC2(C)O (centres unmarked) [Compound 3, Mussaenoside] | 28% | 9 |  | 
4 | CC1(O)CCC2C(C(=O)O)=COC(OC3OC(CO)C(O)C(O)C3O)C21 (centres unmarked) [Compound 2, Mussaenosidic acid] | 35% | 15 |  | 
5 | COc1ccc(-c2cc(=O)c3c(O)c(OC)c(O)cc3o2)cc1 [Compound 5, Pectolinarigenin] |  |  | 790 | IC50 (Staphylococcus aureus): 49.8 µM; IC50 [3]: 32 µM; IC50 (Plasmodium falciparum K1): 41.8 µM; cytotoxicity against MRC-5 cells [4]: not cytotoxic; IC50 [2]: 230 µM
6 | COc1ccc(-c2cc(=O)c3c(O)c(OC)c(O[C@@H]4O[C@H](CO[C@@H]5O[C@@H](C)[C@H](O)[C@@H](O)[C@H]5O)[C@@H](O)[C@H](O)[C@H]4O)cc3o2)cc1 [Compound 6, Pectolinarin] |  | 48 | 2290 | 
